From US7625870B2, “Peptide substance restoring respiratory organs function” (“Access Bioscience” CJSC, priority 2004, dated 2009)
Marks after values point to notes of the source that are not given here. Peptide text beside a SMILES is read from it.

Legend:
white mongrel male rats = test: Subacute toxicity, 90 days intramuscular; assay type: in vivo, rat; conditions: long term administration, doses 100-1000 times exceeding the therapeutic one
Source text: (§1) The general toxic effect of tetrapeptide was studied in compliance with “The manual of Experimental (Pre-Clinical) Study of New Pharmacological Substances” (2000): acute toxicity was studied in conditions of tetrapeptide single administration, subacute and chronic toxicity were investigated in conditions of long tetrapeptide administration.
Subacute toxicity of the tetrapeptide was investigated on 60 white mongrel male rats weighing 150-250g. The animals of the experimental groups were exposed to intramuscular injection of the tetrapeptide in the doses of 1 μg/kg, 0,1 mg/kg, 1 mg/kg in 0,5 ml of natural saline solution, once a day for 90 days. The animals of the control group were administered with natural saline solution in the same amount. Before the onset of tetrapeptide administration in the 30th, 60th and 90th day the animals were exposed to an examination of the morphological composition and characteristics of the peripheral blood. On the completion of the experiment there were studied biochemical and coagulological blood indices.

white mongrel male mice = test: Acute toxicity, single intramuscular injection; assay type: in vivo, mouse; conditions: dose exceeding the therapeutic one 5000 times
Source text: as §1
Acute toxicity was investigated on 60 white mongrel male mice weighing 20-23 g. The animals were randomized to 6 equal groups. They were intramuscularly injected with the tetrapeptide once in the doses of 1 mg/kg, 2 mg/kg, 3 mg/kg, 4 mg/kg, 5 mg/kg in 0.25 ml of natural saline solution. The control animals received the same amount of natural saline solution (0.9%).

male guinea-pigs = conditions: guinea pig, in vivo
Source text: as §1
The tetrapeptide was investigated for chronic toxicity for 6 months, taking into consideration the recommended period of administration, on 100 male guinea-pigs weighing 300-350 g. The animals of the experimental groups were intramuscularly injected with the tetrapeptide in the doses 1 μg/kg, 0,1 mg/kg, 1 mg/kg in 0,5 ml of natural saline solution, once a day for 6 months. The animals of the control group were administered with natural saline solution in the same amount.
These animals were exposed to the assessment of the amount of erythrocytes, hemoglobin, reticulocytes, thrombocytes, leucocytes, leukocytic formula, speed of erythrocytes sedimentation (SES), erythrocytes resistance in peripheral blood. Together with this there was measured the total protein content in the blood serum according to the method of Lowry, potassium and sodium content were measured according to the method of plasma spectrophotometry. On completion of the experiment the animals were subjected to a pathomorphological examination to assess the state of brain and spinal marrow, cerebrospinal ganglia, thyroid gland, adrenal glands, testes, pituitary body, heart, lungs, aorta, liver, kidneys, urinary bladder, pancreas, stomach, small intestine, large intestine, thymus, spleen, lymph nodes, bone marrow.

[1] = tested on: sublethal hyperoxic lung injury in rats; test: Sublethal hyperoxic lung injury in rats; assay type: in vivo, rat
Description: The experiment was conducted on 96 white mongrel rats weighing 200-230 g. The animals were divided into three groups: 8 intact animals, 48 control and 40 experimental animals. The animals were exposed to oxygenation by 100% oxygen during 60 hours in the running mode by normal pressure in chamber with oxygen expenditure, providing 8-10 full changes of the gas medium in one hour. Tetrapeptide administration was set out on the 3rd day of being in the normal atmosphere. Experimental animals were administered with the tetrapeptide (intraperitoneal administration in the dose of 0,2 μg/kg of body weight, dissolved in 0.9% sodium chloride solution (natural saline), 10 injections, every other day). […] There were conducted biometrical studies, estimation of BALF cytogram and AM phagocytic activity. BALF cellular content was estimated by coloring of the precipitated cells on the glass following the Leishman-Romanowsky method.

[2] = tested on: acute bacterial lung injury (Staphilococcus aureus 209) in rats; test: Acute inflammation model, bacterial lung injury in rats (BALF cytogram, AM phagocytic activity); assay type: in vivo, rat
Description: The study was conducted on 120 white mongrel rats with average body weight 200-230 g. The animals were divided at random into 3 groups: 10 (intact), 60 (control) and 50 (experimental). In order to infect the animals there was used twenty-four-hours' culture of Staphilococcus aureus 209, which is tropic to rodents pulmonic tissue. There was also used a cellular suspension 5×10^6 cl/ml with Freind adjuvant (25% of total volume). Before infecting the animals were exposed to a supercooling at temperature −20° C. for 1 hour. Then the animals were infected using light thiopental narcosis (8 mg/100g of body weight) in sterile box. Injections of tetrapeptide were started in 2 days after infecting and were conducted for 7 days (daily, intraperitoneally in dose of 0,2 μg/kg). Control animals were administered with 0.9% NaCl solution. The animals were excluded from the trial on the 1, 3, 6, 10, […] and 20th days by the method of cervical dislocation. In each period there was conducted BAFL testing in order to estimate its cellular content and AM phagocytic activity, superoxid-anion (SA) production and total free radical production by BAFL cells. On the 1 and the 6th days of the study there was conducted lung morphological examination.

[3] = tested on: lung tissue explants of mature Wistar rats; test: Growth of lung organotypical culture explants; assay type: cell-based, rat; conditions: for SI, % compared to the control: 3 days of incubation
Description: Lung tissue explants of mature Wistar rats were cultivated in petri dishes with collagen bottom cover. The nutritious medium was composed of 35% Eagle's medium, 35% Hanx solution, 25% calf fetal serum and 5% of chicken embryonic extract with added glucose, insulin, gentamycin and glutamin. Ala-Glu-Asp-Leu (SEQ ID NO:1) tetrapeptide was added into the cultural medium in fixed concentrations, from 0,01 to 20,0 ng per ml of nutritious medium. The same amount of natural saline solution was added to the control explants. After 3 days of incubation at the temperature of 37° C. there was assessed an extension of explants' area using phase contrast microscope. Biological activity of the preparation was evaluated by the change of square index (SI) of the explants cultivated in the medium containing the peptide, compared to the control.

[4] = tested on: bleomycine lung fibrosis in rats; test: Chronic fibrosing inflammatory process (bleomycine lung fibrosis) in rats; assay type: in vivo, rat; conditions: for Body weight / Relative lungs weight / Ventricular index, right ven./left ven. × 100%: 0,2 μg/kg intraperitoneally; for Blood large CIC / Blood medium CIC: blood serum
Description: The experiment was carried out on 120 white mongrel rats weighing 130-160 g. The animals were divided at random into 3 groups, 40 animals in each. Then the animals were subjected to a thrice-repeated intratracheal administration of bleomycine solution (at a rate of 10.0 mg per kg of body weight) with 2 weeks interval. The tetrapeptide was administered intraperitoneally in the dose of […] of body weight in sterile 0,9% NaCl solution in the course of 7 days beginning from the 5h day after each bleomycine installation.
10 animals of each group were excluded from the experiment by the method of cervical dislocation on the 15, 30, 45 and 60 days after experiment onset.
In each period there was conducted broncho-alveolar lavage fluid (BALF) test in order to estimate its cellular content, and alveolar macrophages phagocytic activity, production of superoxide-anion and total free radical production by BALF cells. In the blood and BALF there were estimated the number of circulating immune complexes (CIC). After the last bleomycin administration there was conducted lung examination.

[5] = day 3, 0,2 μg/kg intraperitoneally
[6] = day 6, 0,2 μg/kg intraperitoneally
[7] = day 10, 0,2 μg/kg intraperitoneally
[8] = day 15, 0,2 μg/kg intraperitoneally
[9] = day 20, 0,2 μg/kg intraperitoneally
[10] = in words, 0,2 μg/kg intraperitoneally

SMILES: CC(C)C[C@H](NC(=O)[C@H](CC(=O)O)NC(=O)[C@H](CCC(=O)O)NC(=O)[C@H](C)N)C(=O)O [Tetrapeptide, L-alanyl-L-glutamyl-L-aspartyl-L-leucine] (H-AEDL-OH)
- subacute toxicity, side-effects (white mongrel male rats): does not reveal any side-effects
- acute toxicity, toxic reactions (white mongrel male mice): does not cause any toxic reactions
- chronic toxicity, side-effects (male guinea-pigs): does not reveal any side-effects
- effect on SES, erythrocytes resistance and biochemical indices of blood serum (male guinea-pigs): weren't revealed a reliable effect
- number of leucocytes (blood morphological content) (male guinea-pigs): increase
- Body weight ([1]; 0,2 μg/kg intraperitoneally, 10 injections, day not given): 228 ± 6+ g
- Phagocytic activity of AM, Phagocytic index ([1]; day 10): 50.8 ± 2.3+
- Phagocytic activity of AM, Phagocytic number ([1]; day 10): 5.78 ± 0.42*+
- Phagocytic activity of AM, Phagocytic index ([1]; day 10, listed as tetrapeptide): 50,8±2,3
- Phagocytic activity of AM, Phagocytic index ([1]; day 20): 45.8 ± 2.6*+
- Phagocytic activity of AM, Phagocytic number ([1]; day 20): 3.35 ± 0.35+
- Phagocytic activity of AM, Phagocytic index ([1]; day 20, listed as tetrapeptide): 45,5±2,6
- Phagocytic activity of AM, Phagocytic index ([1]; day 30): 42.7 ± 2.5
- Phagocytic activity of AM, Phagocytic number ([1]; day 30): 2.83 ± 0.36
- Phagocytic activity of AM, Phagocytic index ([1]; day 40): 40.3 ± 2.3
- Phagocytic activity of AM, Phagocytic number ([1]; day 40): 3.45 ± 0.23
- Phagocytic activity of AM, Phagocytic index ([1]; day 50): 38.5 ± 2.3
- Phagocytic activity of AM, Phagocytic number ([1]; day 50): 3.21 ± 0.24
- pathomorphological changes manifestation (interstitial fibrosis, atelectasis foci, cellular infiltration) ([1]; in words): decrease
- BAFL cytogram, Lymphocytes [2, 5]: 1.68 ± 0.16 ×10^6 cells/lungs
- BAFL cytogram, Macrophages [2, 5]: 29.7 ± 2.8*+ ×10^6 cells/lungs
- BAFL cytogram, Neutrophiles [2, 5]: 6.98 ± 1.48*+ ×10^6 cells/lungs
- Phagocytic index (alveolar macrophages) [2, 5]: 52.4 ± 2.9*+
- Phagocytic number (alveolar macrophages) [2, 5]: 5.83 ± 0.37*+
- BAFL cytogram, Lymphocytes [2, 6]: 0.86 ± 0.23 ×10^6 cells/lungs
- BAFL cytogram, Macrophages [2, 6]: 24.9 ± 1.2*+ ×10^6 cells/lungs
- BAFL cytogram, Neutrophiles [2, 6]: 0.52 ± 0.18 ×10^6 cells/lungs
- Phagocytic index (alveolar macrophages) [2, 6]: 41.5 ± 3.1+
- Phagocytic number (alveolar macrophages) [2, 6]: 4.98 ± 0.28*+
- BAFL cytogram, Lymphocytes [2, 7]: 0.59 ± 0.28 ×10^6 cells/lungs
- BAFL cytogram, Macrophages [2, 7]: 19.2 ± 2.8*+ ×10^6 cells/lungs
- BAFL cytogram, Neutrophiles [2, 7]: 0.31 ± 0.18 ×10^6 cells/lungs
- Phagocytic index (alveolar macrophages) [2, 7]: 49.2 ± 2.8+
- Phagocytic number (alveolar macrophages) [2, 7]: 2.98 ± 0.32+
- BAFL cytogram, Lymphocytes [2, 8]: 0.79 ± 0.20 ×10^6 cells/lungs
- BAFL cytogram, Macrophages [2, 8]: 16.3 ± 2.8 ×10^6 cells/lungs
- BAFL cytogram, Neutrophiles [2, 8]: 0.21 ± 0.16 ×10^6 cells/lungs
- Phagocytic index (alveolar macrophages) [2, 8]: 55.9 ± 4.2
- Phagocytic number (alveolar macrophages) [2, 8]: 3.74 ± 0.25
- BAFL cytogram, Lymphocytes [2, 9]: 0.56 ± 0.17 ×10^6 cells/lungs
- BAFL cytogram, Macrophages [2, 9]: 14.6 ± 2.1 ×10^6 cells/lungs
- BAFL cytogram, Neutrophiles [2, 9]: 0.25 ± 0.11 ×10^6 cells/lungs
- Phagocytic index (alveolar macrophages) [2, 9]: 49.3 ± 3.6
- Phagocytic number (alveolar macrophages) [2, 9]: 3.68 ± 0.31
- basal and zymosan-stimulated production of SA (superoxid-anion) by AM [2, 10]: reliably increases
- normalization of free radical production of BALF cells [2, 10]: more rapid normalization
- processes of lung tissue reparation ([2]; in words, dose of 0,2 μg/kg of body weight): speeding-up
- SI, % compared to the control ([3]; 0.01 ng/ml): 2%
- SI, % compared to the control ([3]; 0.1 ng/ml): 14%
- SI, % compared to the control ([3]; 0.5 ng/ml): 9%
- SI, % compared to the control ([3]; 1.0 ng/ml): 22* %
- SI, % compared to the control ([3]; 2.0 ng/ml): 53* %
- SI, % compared to the control ([3]; 10.0 ng/ml): 25* %
- SI, % compared to the control ([3]; 20.0 ng/ml): 9%
- growth of organotypic lung culture explants ([3]; in words, concentrations from 1,0 to 10,0 ng/ml): reliably stimulates
- number of lymphocytes in BAFL ([4]; 30th day): 1,75±0,45 ×10^6 cells/lungs
- AM phagocytic activity, phagocytic index ([4]; 45th day): 75,6±4,5
- AM phagocytic activity, phagocytic index ([4]; 60th day): 78,6±3,2
- number of lymphocytes in BAFL ([4]; 60th day): 1,11±0,15 ×10^6 cells/lungs
- Body weight ([4]; day 15): 151.6 ± 5.6 g
- Relative lungs weight ([4]; day 15): 11.3 ± 0.6 mg/g of body weight
- Ventricular index, right ven./left ven. × 100% ([4]; day 15): 34.2 ± 1.8+ %
- BAFL large CIC ([4]; day 15): 42.6 ± 13.1 units
- BAFL medium CIC ([4]; day 15): 37.6 ± 7.6 units
- Blood large CIC ([4]; day 15): 47.2 ± 12.3 units
- Blood medium CIC ([4]; day 15): 113.4 ± 11.6+ units
- Body weight ([4]; day 30): 176.8 ± 5.8 g
- Relative lungs weight ([4]; day 30): 12.8 ± 0.4 mg/g of body weight
- Ventricular index, right ven./left ven. × 100% ([4]; day 30): 37.2 ± 1.5*+ %
- BAFL large CIC ([4]; day 30): 52.3 ± 8.3*+ units
- BAFL medium CIC ([4]; day 30): 72.3 ± 8.1*+ units
- Blood large CIC ([4]; day 30): 85.9 ± 12.3*+ units
- Blood medium CIC ([4]; day 30): 187.6 ± 20.4*+ units
- Body weight ([4]; day 45): 195.3 ± 6.5+ g
- Relative lungs weight ([4]; day 45): 11.5 ± 0.3*+ mg/g of body weight
- Ventricular index, right ven./left ven. × 100% ([4]; day 45): 42.3 ± 2.1*+ %
- BAFL large CIC ([4]; day 45): 76.3 ± 8.3*+ units
- BAFL medium CIC ([4]; day 45): 79.4 ± 5.4*+ units
- Blood large CIC ([4]; day 45): 135.2 ± 12.3*+ units
- Blood medium CIC ([4]; day 45): 208.7 ± 12.5*+ units
- Body weight ([4]; day 60): 234 ± 9.3+ g
- Relative lungs weight ([4]; day 60): 13.4 ± 0.5*+ mg/g of body weight
- Ventricular index, right ven./left ven. × 100% ([4]; day 60): 46.6 ± 1.4*+ %
- Ventricular index, right ven./left ven. × 100% ([4]; day 60, listed as tetrapeptide): 46,6±1,4%
- BAFL large CIC ([4]; day 60): 53.2 ± 9.4+ units
- BAFL medium CIC ([4]; day 60): 41.8 ± 6.7+ units
- Blood large CIC ([4]; day 60): 81.3 ± 11.3*+ units
- Blood medium CIC ([4]; day 60): 159.4 ± 12.8+ units
- basal superoxid-anion production in response to respiratory explosion stimulators ([4]; in words): decrease
- lung morphologic changes as compared to control animals ([4]; in words, after the 3rd bleomycine installation): reliably less pronounced
